Data on two molecules can be found in patent US8796302B2 (priority 2004, dated 2014).

Assay [1] concerns dopaminergic neurons in rat primary mesencephalic neuron-glia cultures. Kind of assay: [3H]DA uptake in LPS-treated mesencephalic neuron-glia cultures. The conditions noted are these: LPS 5 ng/ml; for concentration of greatest level of protection (DA uptake): 10^−12-10^−16 M tested; for enhancement of [3H]DA uptake after exposure to LPS: 30 min pretreatment, 7 days. In kind it is cell-based. As for the experimental part:
Neuron-glia cultures were prepared from the ventral mesencephalic tissues of embryonic day 13-14 Fisher F344 rats or day 12-13 wild-type C57BL/6J (gp91phox^+/+) mice. Dissociated cells were seeded at 1×10^5/well and 5×10^5/well to poly-D-lysine-coated 96-well and 24-well plates, respectively. Cells were maintained at about 37° C. in a humidified atmosphere of 5% CO2 and 95% air, in minimal essential medium (MEM) containing 10% fetal bovine serum (FBS), 10% horse serum (HS), 1 gm/l glucose, 2 mM L-glutamine, 1 mM sodium pyruvate, 100 μM nonessential amino acids, 50 U/ml penicillin, and 50 μg/ml streptomycin. Seven-day-old cultures were used for treatment.
Dextromethorphan (obtained from Sigma-Aldrich (St. Louis, Mo.) as dextromethorphan hydrobromide) was freshly prepared as a stock solution (1 mM) in ddH2O and sterile-filtered right before use. For treatment of the cultures, the DM was serially diluted (10×) with fresh culture medium containing 2% of fetal bovine and horse serum. The neuron-glia cultures were pretreated with 10^−5-10^−17M DM 30 minutes prior to treatment with 10 ng/ml of LPS.
Seven days after treatment, the degeneration of dopaminergic neurons was assessed by [^3H]-dopamine (DA) uptake assays. The [^3H]-DA uptake assays were performed as follows. Cultures were washed twice with warm Krebs-Ringer buffer (KRB, 16 mM sodium phosphate, 119 mM NaCl, 4.7 mM KCl, 1.8 mM CaCl2, 1.2 mM MgSO4, 1.3 mM EDTA, and 5.6 mM glucose; pH7.4) and then incubated for about 20 minutes at about 37° C. with 1 μM [^3H]-DA in KRB in order to allow for the uptake of DA. Afterwards, the cultures were washed (three times) with ice-cold KRB and the cells were collected in 1 N NaOH. Radioactivity was determined by liquid scintillation counting.
(§1) This example tests whether or not post-treatment with DM is still neuroprotective in LPS-induced neurotoxicity. Neuron-glia co-cultures as prepared in Example 1 were first treated with LPS (20 ng/ml) for twelve hours, and then LPS was removed by removing the media from the cultures and washing twice with PBS. Different concentrations of DM (10^−5, 10^−10, and 10^−14 M) were then added to the cultures and incubation was continued for another 6 or 7 days. The DA uptake and the superoxide production were measured as in Example 1 and 5.
Neuron-glia cell cultures were prepared as in Example 1, and pretreated with the various peptide fragments of Table 1 (peptide fragments were obtained from BACHEM) for 30 minutes followed by addition of 5 ng/ml of LPS. DA neurotoxicity was measured as an Example 1 at 7 days post treatment.
DA neurotoxicity was measured at 7 days post treatment as in Example 1. Dopaminergic neuronal death was determined at 7 days post treatment using immunocytochemical staining as in Example 2.
Neuron-glia cultures were prepared from the ventral mesencephalic tissues of embryonic day 13-14 rats. Dissociated cells were seeded at 1×10^5/well and 5×10^5/well to poly-D-lysine-coated 96-well and 24-well plates, respectively.

The test system of assay [2] is TH-IR (dopaminergic) neurons in mesencephalic neuron-glia cultures. Description: TH-IR neuron count and morphology in LPS-treated neuron-glia cultures. In kind it is cell-based, rat. Conditions: LPS 5 ng/ml; for concentration of peak protection against LPS-induced DA neuron cell loss: 10^−12-10^−16 M tested; for LPS-induced damage of TH immuno-reactive neurons: 10^−14 M.

The subject of the next assay is superoxide. Kind of assay: Superoxide release (SOD-inhibitable cytochrome c reduction) after LPS. In kind it is cell-based, rat. The conditions noted are these: 10^−14 M, enriched-microglia cultures, LPS 10 ng/ml. The method, then:
The release of superoxide was determined by measuring the superoxide dismutase (SOD)-inhibitable reduction of cytochrome c. To measure the immediate release of superoxide from microglia-enriched or neuron-glia after stimulation, cultures grown in 96-well plates were switched to phenol red-free HBSS (50 μl/well). To each well was added 50 μl of HBSS containing vehicle or DM. The cultures were then incubated at about 37° C. for about 30 min followed by 50 μl of ferricytochrome c (100 μM) in HBSS, with and without 600 U/ml SOD, 50 μl of vehicle or LPS in HBSS. The absorbance at 550 nm was read with a SpectraMax Plus microplate spectrophotometer (Molecular Devices, Sunnyvale, Calif.).
as §1, with “5. Results are expressed as a percentage of the control cultures and are the mean±S.E.M of three to six experiments with triplicates in each experiment. ##, P<0.01 compared with control culture; *, P<0.05 compared with the LPS-treated culture.” for “5.”
Primary enriched-microglia cultures were prepared as in Example 1. […] The intracellular ROS concentrations and superoxide amounts were measured as in Example 5. The data are expressed as the percent of the control cultures and are the mean±SEM of three experiments performed in triplicate. *P<0.05, **P<0.01, compared to control.

In assay [3] the test system is intracellular reactive oxygen species. Kind of assay: Intracellular ROS (DCFH oxidation) after LPS. It counts as cell-based, rat. The conditions noted are these: 10^−14 M, enriched-microglia cultures, LPS 10 ng/ml.
Description: The production of intracellular reactive oxygen species was measured by DCFH oxidation. The DCFH-DA (Molecular Probes, Eugene, Oreg.) reagent passively diffuses into cells in which it is hydrolyzed by intracellular esterase to liberate 2′-7′-dichlorofluoressein which, during reaction with oxidizing species, yields a highly fluorescent compound 2′-7′-dichlorofluorescein (DCF) that is trapped inside the cell. For each measurement, a fresh stock solution of CM-H2-DCFDA (5 mM) was prepared in dimethylsulfoxide. CM-H2-DCFDA, diluted to a final concentration of 1 μM in phenol red-free HBSS containing 2% FBS and 2% HS, was added to cultures and incubated for about 30 min at about 37° C. After washing two times with warm HBSS, vehicle or stimulators in HBSS were added to cultures. After incubation for about 30 min at about 37° C., fluorescence intensity was measured at 485 nm for excitation and 530 nm for emission using a SpectraMax Gemini XS fluorescence microplate reader (Molecular Devices).
Assay of intracellular ROS is performed as follows. 5-(and −6)-Chloromethyl-2′,7′-dichlorodihydrofluorescein diacetate (CM-H2-DCFDA) (Molecular Probes, Eugene, Oreg.), a chloromethyl derivative of H2-DCFDA, passively diffuses into cells in which it is hydrolyzed by intracellular esterases to liberate 2′-7′-dichlorofluorescein (DCF) which, during reaction with oxidizing species, yields a highly fluorescent compound that is trapped inside the cell. […] Cells were seeded at 1×10^5/well in 96-well plates for one day followed by treatment with 0.6 mM or 1.2 mM VPA for 24 h. The cultures were used for the assay of intracellular ROS.
After washing two times with warm Hank's balanced salt solution (HBSS), CM-H2-DCFDA, diluted to a final concentration of 1 μM in phenol red-free HBSS, was added to cultures and incubated for 30 min at 37° C. Then cultures were added with 0.6 or 1.2 mM VPA in HBSS again for 30 min and followed the treatment with 100 ng/ml LPS for 2 hours at 37° C., fluorescence intensity was measured at 485 nm for excitation and 530 nm for emission using a SpectraMax Gemini XS fluorescence microplate reader (Molecular Devices, Sunnyvale, Calif.).
Assay [4] concerns dopaminergic neurons in PHOX^+/+ and PHOX^−/− mouse neuron-glia cultures. Description: [3H]DA uptake in neuron-glia cultures of PHOX+/+ and PHOX−/− mice. It counts as cell-based. Conditions: PHOX−/− cultures, 10^−13-10^−14 M, LPS 5 ng/ml. As for the experimental part: To further study the role of ROS in DM-elicited neuroprotection, neuron-glia cultures were prepared from NADPH oxidase-deficient (PHOX^−/−) and wild-type (PHOX^+/+) mice.
(§2) Neurotoxicity was assessed by DA uptake as described in Example 1. TNFα production was measured by ELISA and iROS was determined by DCFDA as in Example 5. Results are expressed as a percentage of the control culture in FIG. 7A, pg/ml in FIG. 7B, and difference from control in FIG. 7C, respectively, and are the mean±S.E.M. of five individual experiments with triplicates in each experiment. *, P<0.05 compared with LPS culture.
(§3) The rat and mouse ventral mesencephalic neuron-glia cultures were prepared as in Example 1. […] DA neurotoxicity was measured by using the [^3H] DA uptake assay as in Example 1. The data are expressed as the percent of the control cultures and are the mean±SEM. The release of TNFα was measured with a commercially available enzyme-linked immunosorbent assay kit. *P<0.05, **P<0.01, compared to control. The amount of TNFα was measured as in Example 2.

The test system of another assay is TNFα. Description: TNFα production in neuron-glia cultures of PHOX+/+ and PHOX−/− mice. In kind it is cell-based, mouse. Conditions: LPS 5 ng/ml. As for the experimental part:
as §2, §3

In another assay the target is T1, gp91/p22 (Homo sapiens, UniProt P04839).
T1 construct: expressed in transfected cells; host or cells: COS-7 (stably transfected); intact cells or membrane preparations
Description: [3H]naloxone binding to COS-7 cells transfected with gp91/p22. The conditions noted are these: COS-7 gp91/p22 cells, [3H]naloxone 2 nM, displaced with 10 μM cold naloxone. The method, then: Binding affinities of naloxone for COS-7 cells transfected with gp91/p22 was determined using either [^3H]-(+)Naloxone or [^3H]-(−)Naloxone (2 nM; PerkinEhner Life Sciences) as ligands and displaced with 10 μM of cold (−) Naloxone in HBBS containing 0.1% (W/V) fatty acids free albumin (lot B22558, Calbiochem). COS-7 cells transfected with gp91/p22 and COS-7 cells that were not transfected (WT) were detached using Versene (1:5000, GibcoBRL, Life technologies). For intact cell assays, after washing twice with HBSS, cells were transferred to micro centrifuge tubes at 10^6 cells per tube.
To acquire membrane preparations, cells were lysed in buffer ([…] Tris, pH=7.4, 2 mM EDTA, 10 μg/ml CLAP) and homogenized. Lysate was transferred to a 50 ml conical tube, where there were centrifuged at 250 g for about 10 minutes at about 4 C. The supernatant was then transferred to another tube and spun at 100,000 G for about 90 minutes. The supernatant was then discarded and the protein pellet was re-suspended in 2 ml of lysis buffer. […]
All competition reactions of either intact cells or membrane preparations were allowed to proceed at 4° C. […] After washing with HBSS four times, the filters were collected and radioactivity retained on the filters was determined by liquid Scintillation counting. All values are expressed as percentages relative to the binding capacity of the wild type control.

For assay [5], the system named is dopaminergic neurons in rat primary mesencephalic neuron-glia cultures. Kind of assay: [3H]DA uptake in LPS-treated mesencephalic neuron-glia cultures. In kind it is cell-based. Conditions: femtomolar concentrations, LPS 5 ng/ml.
Where [6] appears, read: PHOX−/− mice, 30 min pretreatment.
Setting [7] is: control (PHOX+/+) mice, 10^−14 M.

T1 sequence (P04839 whole entry): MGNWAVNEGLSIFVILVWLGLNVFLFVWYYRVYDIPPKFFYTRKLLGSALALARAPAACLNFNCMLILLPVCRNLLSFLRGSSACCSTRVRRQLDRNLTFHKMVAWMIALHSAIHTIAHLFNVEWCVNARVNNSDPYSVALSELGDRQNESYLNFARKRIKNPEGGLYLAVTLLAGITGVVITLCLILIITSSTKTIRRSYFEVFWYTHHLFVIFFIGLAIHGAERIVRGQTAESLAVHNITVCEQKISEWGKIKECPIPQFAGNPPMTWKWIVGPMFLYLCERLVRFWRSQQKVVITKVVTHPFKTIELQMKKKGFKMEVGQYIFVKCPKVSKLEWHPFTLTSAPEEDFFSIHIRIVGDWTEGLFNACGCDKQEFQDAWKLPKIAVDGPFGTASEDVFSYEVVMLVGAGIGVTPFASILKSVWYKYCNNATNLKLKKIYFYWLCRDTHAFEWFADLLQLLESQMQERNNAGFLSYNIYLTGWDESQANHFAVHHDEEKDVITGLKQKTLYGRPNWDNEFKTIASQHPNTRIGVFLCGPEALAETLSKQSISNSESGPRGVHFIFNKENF
T1 sequence (P13498 whole entry partner): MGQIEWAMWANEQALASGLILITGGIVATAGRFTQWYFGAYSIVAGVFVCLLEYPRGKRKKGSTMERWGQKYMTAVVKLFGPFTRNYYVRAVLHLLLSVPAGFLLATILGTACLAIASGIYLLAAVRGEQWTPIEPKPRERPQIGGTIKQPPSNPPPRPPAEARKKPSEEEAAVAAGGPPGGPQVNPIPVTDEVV

As to `C=CCN1CC[C@]23c4c5ccc(O)c4O[C@H]2C(=O)CC[C@@]3(O)[C@H]1C5` [naloxone, (5α)-4,5-Epoxy-3,14-dihydroxy-17-(2-propenyl)morphinan-6-one], in assay [1], the “concentration of greatest level of protection (DA uptake)” value is on record as 10^−14 M and the “enhancement of [3H]DA uptake after exposure to LPS” value is listed as “approximately 35%”. In addition, in assay [2], the “concentration of peak protection against LPS-induced DA neuron cell loss” value was 10^−14 M and the “LPS-induced damage of TH immuno-reactive neurons” value is given as “protected TH immuno-reactive neurons from LPS-induced damage”. Moreover, in the assay with superoxide, the microglial superoxide response result is “nearly control levels”. Besides, the “reduction of intracellular ROS concentrations” value in assay [3] is recorded as 65%. Moreover, in assay [4], the “neuroprotection (DA uptake)” value is “failed to show neuroprotection”. Also, the “TNFα reduction in response to LPS” value in the assay with TNFα (setting [6]) is “failed to show any TNFα reduction”. Also, in the assay on TNFα (setting [7]), the “TNFα reduction in response to LPS” value is given as “showed a reduction of TNFα”. In addition, the “binding capacity relative to control COS-7 cells” value on gp91/p22 is given as 150-180%.

As for glycine-glycine-phenylalanine [GGF], in assay [1], the “concentration of greatest level of protection (DA uptake)” value is 10^−14 M and the “enhancement of [3H]DA uptake after exposure to LPS” value is given as “approximately 35%”. Besides, in assay [2], the “concentration of peak protection against LPS-induced DA neuron cell loss” value was 10^−14 M and the “LPS-induced damage of TH immuno-reactive neurons” value is “protected TH immuno-reactive neurons from LPS-induced damage”. Moreover, the microglial superoxide response entry with superoxide is “nearly control levels”. Besides, the “reduction of intracellular ROS concentrations” value in assay [3] was determined as 65%. For the same molecule, in assay [4], the “neuroprotection (DA uptake)” value is given as “failed to show neuroprotection”. In the assay with TNFα (setting [6]), the “TNFα reduction in response to LPS” value was “failed to show any TNFα reduction”. The “TNFα reduction in response to LPS” value in the assay on TNFα (setting [7]) is listed as “showed a reduction of TNFα”. Further, the “neuroprotection against LPS-induced neurodegeneration” value in assay [5] is given as “minimal peptide sequence required for neuroprotection”.
